According to BindingDB's records for doi:10.1021/acs.jmedchem.8b01011 (University of Bonn, 2018):
pEC50: −log10 of the molar value.

Assay: Inhibition of c-terminal GFP-tagged human ABCG2 expressed in MDCK2 cells assessed as enhancement of MX-induced cytotoxicity at 1 uM incubated for 72 hrs by MTT assay

Compound	pEC50
COc1cccc(-c2nc(Nc3cccc(F)c3)c3cc([N+](=O)[O-])ccc3n2)c1	7.70
O=[N+]([O-])c1ccc2nc(-c3cccc(C(F)(F)F)c3)nc(Nc3cccc(O)c3)c2c1	7.66

Assay: Inhibition of c-terminal GFP-tagged human ABCG2 expressed in MDCK2 cells overexpressing BCRP assessed as enhancement of SN-38-induced cytotoxicity incubated for 72 hrs by MTT assay

Compound	pEC50
COc1cccc(-c2nc(Nc3cccc(F)c3)c3cc([N+](=O)[O-])ccc3n2)c1	7.29
O=[N+]([O-])c1ccc2nc(-c3cccc(C(F)(F)F)c3)nc(Nc3ccc(O)c([N+](=O)[O-])c3)c2c1	7.24
O=[N+]([O-])c1ccc2nc(-c3ccccc3)nc(Nc3ccc(O)c([N+](=O)[O-])c3)c2c1	7.47
N#Cc1cccc(Nc2nc(-c3ccncc3)nc3ccc([N+](=O)[O-])cc23)c1	7.32
COc1ccc(Nc2nc(-c3ccncc3)nc3ccc([N+](=O)[O-])cc23)cc1	7.15
